Some test systems named below: SK-MEL-2; SNB-78; HOP-92; EKVX; SK-MEL-5; SR; MDA-N; A549; DMS-114; MDA-MB-435; NCI-H522; HCT-15; MOLT-4; MCF7; OVCAR-4; IGROV-1; SNB-19; M19-MEL; HCT-116; NCI-H460.
Common to all, as to experiment: NCI anticancer screen, dose series, 48 h

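The compound was tested at five concentrations on cells cultured in 96-well plates, with a 48-hour exposure period. GI50 marks 50% less growth.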 Active and inactive are the calls of the source. No stated cut-off is given here; in the data, active = GI50 up to about 1.1 µM and inactive = higher. Some results are limits rather than exact numbers.

For `CC(C)CCCCCCCCCCCCC(=O)NCC(=O)NC1C(C)OC(Nc2[nH]cnc3ncnc2-3)C(O)C1O` (stereo not given), the GI50 in the assay with SK-MEL-2 was 3.85 nM (active); in the assay on SNB-78, 0.646 nM (active); in the assay with HOP-92 it was 0.28 nM (active); in the assay on EKVX it was 5.75 nM (active); with SK-MEL-5 it was 2.89 nM (active); in the assay with SR, 1.53 nM (active). Further, the GI50 in the assay with MDA-N was < 10 nM (active); in the assay with A549 it was 1.28 nM (active); in the assay with DMS-114 it was < 31.6 nM (active); in the assay with MDA-MB-435, 5.71 nM (active); with NCI-H522 it was 2.73 nM (active); in the assay with HCT-15, under 24.7 nM. Also, the GI50 in the assay on MOLT-4 was 1.02 nM (active); in the assay on MCF7, < 10 nM (active); with OVCAR-4 it was 0.98 nM (active); in the assay on IGROV-1, 0.782 nM (active); in the assay with SNB-19 it was 2.1 nM (active); in the assay on M19-MEL, < 10 nM (active). The GI50 was 0.244 nM (active) in the assay on HCT-116 and 0.158 nM (active) in the assay on NCI-H460.

These data come from ChEMBL document CHEMBL1201862, “PubChem BioAssay data set” (2004).
